Experiments:
[1] = format: physicochemical; settings: pH 6
From the text: Unfortunately, a suitable reversed-phase iTLC system for the ligands mcp-M-PSMA and mcp-D-PSMA was not found so far to determine the radiochemical yields. The resolution of our standard system was not efficient, most likely due to the bigger size of these molecules compared to the basic chelators, different protonation steps and possible conformational structures. […] Additionally, the stability of the ^225Ac-labeled conjugates in acetate buffer was investigated by HPLC analyses over a period of ten days.
Actinium-225 was purchased as a 0.1 M HCl solution from ITM Munich and used without purification. Stem solutions of all ligands were prepared in concentrations of 10^−2 M and diluted to 10^−6 M using 0.2 M ammonium acetate buffer at pH 6. For concentration-dependent labeling experiments, 10 µL of each ligand stem solution was incubated with 100 kBq of actinium-225 (1–5 µL) and the total volume was adjusted to 100 µL with 0.2 M ammonium acetate buffer at pH 6. For stability analyses, 50 µL of the buffer volume were replaced by 50 µL of 0.2 M ascorbic acid or 50 µL of 2,5-dihydroxy benzoic acid, respectively. […]
All samples were incubated for one hour at room temperature and analyzed afterward. […] Radioactivity was measured in Isomed 2100 dose calibrator. Low radioactivity count rates were determined in Isomed 2160 sodium iodide detector. […]

[2] = 225Ac-labeling of ligands in serial dilution, radiochemical yield and 7-day stability by TLC; format: physicochemical; settings: 100 kBq actinium-225, 0.2 M ammonium acetate buffer pH 6, after seven days; for RCY NP (7 d): normal phase TLC, silica, 50 mM EDTA pH 7; for RCY RP (7 d): reversed-phase TLC, Alugram RP-CN, acetonitrile/water 7/3
Protocol: To compare the efficiency of the synthesized chelators and their conjugates, 100 kBq of actinium-225 were incubated with each ligand at different concentrations (10^−5 M; 10^−6 M; 10^−7 M). The radiochemical yield was determined after one hour of reaction time using normal phase and reversed-phase TLC. Whereas one TLC-system was designed to move free actinium-225 with the solvent front, the other system was developed only to move the actinium-225 labeled complexes. Concentration-dependent radiochemical yields for all ligands and 7-day-longterm yields, which were calculated using both TLC systems, are presented in Table 1.
Actinium-225 was purchased as a 0.1 M HCl solution from ITM Munich and used without purification. Stem solutions of all ligands were prepared in concentrations of 10^−2 M and diluted to 10^−6 M using 0.2 M ammonium acetate buffer at pH 6. For concentration-dependent labeling experiments, 10 µL of each ligand stem solution was incubated with 100 kBq of actinium-225 (1–5 µL) and the total volume was adjusted to 100 µL with 0.2 M ammonium acetate buffer at pH 6. For stability analyses, 50 µL of the buffer volume were replaced by 50 µL of 0.2 M ascorbic acid or 50 µL of 2,5-dihydroxy benzoic acid, respectively. Labeling for cell-binding studies was performed using 1.5 MBq of actinium-225 and 4 nmol of the respective PSMA ligand in a total volume of 400 µL adjusted with 0.2 M ammonium acetate buffer at pH 6. Radiolabeling for cell survival studies and all in vivo experiments were performed using 1.5 MBq of actinium-225 and 3.3 nmol of the respective ligand.
All samples were incubated for one hour at room temperature and analyzed afterward. TLC analyses were carried out in two different systems, normal phase on silica plates in 50 mM EDTA solution (pH 7) and reversed-phase on Alugram RP-CN in acetonitrile/water (7/3). TLC plates were imaged using a phosphoimager Amersham Typhoon 5 Scanner (Cytiva Europe GmbH, Freiburg, Germany) after a decay time of at least 7 h. Analytical HPLC was performed using a Jasco HPLC system with RITA analyzer (Elysia-raytest GmbH, Straubenhardt, Germany) for gamma detection on a Phenomenex Phenyl-Hexyl column in water/acetonitrile (+ 0.1% TFA). Radioactivity was measured in Isomed 2100 dose calibrator. Low radioactivity count rates were determined in Isomed 2160 sodium iodide detector. More precise measurements and nuclide identification were carried out on an activity- and efficiency-calibrated HPGe detector CryoPulse 5 (Canberra).

logD7.4 determination = format: physicochemical; settings: pH 7.4, 225Ac complex
LNCaP cells [3] = experiment: CyQUANT direct cell proliferation assay; format: cell-based, human; settings: highest applied dose, 4 h of exposure, cell number 24 h after treatment by DNA staining
Protocol: The treatment response on cellular proliferation was assessed using the CyQUANT direct cell proliferation assay (Thermo Fisher Scientific, Waltham, MA, USA). For this purpose, LNCaP cells were plated in black 96 well cell culture microplates (Greiner Bio-One GmbH, Frickenhausen, Germany) at a density of 2 × 10^4 cells/0.05 mL/well. […] After 1 or 4 h of incubation, the cell culture media was removed and fresh media was added to each well. Cell numbers were subsequently determined 24 h later as per the manufacturer’s protocol. The fluorescence intensity was measured with the Varioskan Flash microplate reader (Thermo Fisher Scientific, Waltham, MA, USA).

LNCaP cells [4] = experiment: Colony formation assay; format: cell-based, human; settings: for Percentage amount of colonies referred to the non-radioactive control: 8 days colony growth
Protocol: LNCaP cells were plated in 6-well cell culture microplates (Greiner Bio-One GmbH, Frickenhausen, Germany) at a density of 6 × 10^3 cells/2 mL/well. […] After 1 or 4 h of incubation, the cell culture media was removed and fresh media was added to each well. Plates were then incubated at 37 °C for 8 days and re-fed every 3 to 4 days. […] The plates were scanned with an Amersham Typhoon 5 Scanner (Cytiva Europe GmbH, Freiburg, Germany) and the colonies were counted using the Image-Quant TL software (Version 8.1, Cytiva Europe GmbH, Freiburg, Germany).

LNCaP tumor-bearing mice = experiment: Biodistribution in LNCaP tumor-bearing SCID mice; format: in vivo, mouse
From the text: The SCID male mice (ENVIGO, Indianapolis, IN, USA) 6–8 weeks old were subcutaneously injected into the right flank with 10 × 10^6 LNCaP cells (ATCC, Manassas, VA, USA) mixed with Matrigel Matrix (Corning, Corning, NY, USA) at a 1:1 ratio. The tumor growth was continuously monitored by caliper-based measurements. When the tumor volume reached 200–300 mm^3 (i.e., 5–6 weeks after the inoculation of cells), the mice were used for biodistribution studies. The experimental animals were housed in a specific-pathogen-free animal facility. All experiments with animals were performed in accordance with appropriate legal norms (Czech Law No. 246/1992) and with the approval of the Ministry of Education, Youth and Sports (MSMT-35035/2019-3) and approval of the Ethical Committee of Faculty of Medicine and Dentistry, Palacky University in Olomouc. The number of animals was reduced as much as possible (n = 4 per group and time point) for all in vivo experiments.
For biodistribution studies, the radiotracers were diluted with saline. The prepared radiotracers were applied retro-orbitally (r.o.) to the experimental animals at a dose of 50 kBq per mouse corresponding to 10 pmol of the peptide. The tracer injection was carried out under 2% isoflurane anesthesia (FORANE, Abbott Laboratories, Abbott Park, IL, USA) to minimize animal suffering and to prevent animal motion. The mice were sacrificed by cervical dislocation 10 min, 60 min and 24 h post-injection and organs of interest (blood, spleen, pancreas, stomach, intestine, kidneys, liver, heart, lungs, muscle, bone and tumor) were collected. The samples were weighed and the activity was measured on an automatic gamma counter. The radiotracer accumulation was expressed as a percentage of injected dose per gram (%ID/g) of the corresponding organ.

[5] = 1 h incubation time, 0.05 kBq/mL
[6] = 1 h incubation time, 0.5 kBq/mL
[7] = 4 h incubation time, 0.05 kBq/mL
[8] = 4 h incubation time, 0.5 kBq/mL
[9] = LNCaP tumor-bearing SCID mice, 24 h p.i.

Compound | RCY NP (7 d) ([2]; ligand 10^−5 M) [%] | RCY RP (7 d) ([2]; ligand 10^−5 M) [%] | RCY NP (7 d) ([2]; ligand 10^−6 M) [%] | RCY RP (7 d) ([2]; ligand 10^−6 M) [%] | RCY NP (7 d) ([2]; ligand 10^−7 M) [%] | RCY RP (7 d) ([2]; ligand 10^−7 M) [%] | also measured
O=C(O)CC[C@H](NC(=O)N[C@H](CCCCNC(=O)[C@@H](Cc1ccc2ccccc2c1)NC(=O)C1CCC(CNC(=O)CCCCn2cc(COc3cc(CN4CCOCCOCCN(Cc5cccc(C(=O)O)n5)CCOCCOCC4)nc(C(=O)O)c3)nn2)CC1)C(=O)O)C(=O)O (mixture of isomers) [mcp-M-PSMA, (3RS,10RS,14S)-1-((1s,4S)-4-((5-(4-(((2-Carboxy-6-((16-((6-carboxypyridin-2-yl)methyl)-1,4,10,13-tetraoxa-7,16-diazacyclooctadecan-7-yl)methyl)pyridin-4-yl)oxy)methyl)-1H-1,2,3-triazol-1-yl)pentanamido)methyl)cyclohexyl)-3-(naphthalen-2-ylmethyl)-1,4,12-trioxo-2,5,11,13-tetraazahexadecane-10,14,16-tricarboxylic acid] |  |  |  |  |  |  | stable in acetate buffer [1]: at least 48 h
O=C([O-])c1cccc(CN2CCOCCOCCN(Cc3cccc(C(=O)[O-])n3)CCOCCOCC2)n1.[225Ac+3] [[^225Ac]Ac-macropa, reference compound] | 99 | 99 | 99 | 99 | 99 | 99 | 
O=C(O)CC[C@H](NC(=O)N[C@@H](CCCCNC(=O)[C@H](Cc1ccc2ccccc2c1)NC(=O)[C@H]1CC[C@H](CNC(=O)CCCCn2cc(COc3cc(CN4CCOCCOCCN(Cc5cc(OCc6cn(CCCCC(=O)NC[C@H]7CC[C@H](C(=O)N[C@@H](Cc8ccc9ccccc9c8)C(=O)NCCCC[C@H](NC(=O)N[C@@H](CCC(=O)O)C(=O)O)C(=O)O)CC7)nn6)cc(C(=O)O)n5)CCOCCOCC4)nc(C(=O)O)c3)nn2)CC1)C(=O)O)C(=O)O [[^225Ac]Ac-mcp-D-PSMA, metal not drawn] | 99 |  | 99 |  | 95 |  | logD7.4 (logD7.4 determination): −2.5 ± 0.1; decrease of relative cell number (LNCaP cells [3]): approximately one third; inhibition of colony formation (LNCaP cells [4]; 5 and 50 kBq/mL, 4 h): ~100%; Percentage amount of colonies referred to the non-radioactive control (LNCaP cells [4]; [5]): 75.0%; Percentage amount of colonies referred to the non-radioactive control (LNCaP cells [4]; [6]): 3.8%; Percentage amount of colonies referred to the non-radioactive control (LNCaP cells [4]; 1 h incubation time, 5 kBq/mL): 3.1%; Percentage amount of colonies referred to the non-radioactive control (LNCaP cells [4]; 1 h incubation time, 50 kBq/mL): 0.8%; Percentage amount of colonies referred to the non-radioactive control (LNCaP cells [4]; [7]): 49.1%; Percentage amount of colonies referred to the non-radioactive control (LNCaP cells [4]; [8]): 6.2%; Percentage amount of colonies referred to the non-radioactive control (LNCaP cells [4]; 4 h incubation time, 5 kBq/mL): 0.5%; Percentage amount of colonies referred to the non-radioactive control (LNCaP cells [4]; 4 h incubation time, 50 kBq/mL): 0.4%; Tumor-to-blood ratio (LNCaP tumor-bearing mice; mouse, in vivo): 158.11; tumor-to-muscle ratio (LNCaP tumor-bearing mice; mouse, in vivo): 275.77
C#CCOc1cc(CN2CCOCCOCCN(Cc3cc(OCC#C)cc(C(=O)[O-])n3)CCOCCOCC2)nc(C(=O)[O-])c1.[225Ac+3] [[^225Ac]Ac-mcp-D-click] | 99 | 99 | 99 | 94 | 50 | 40 | 
O=C(O)CCCCn1cc(COc2cc(CN3CCOCCOCCN(Cc4cccc(C(=O)[O-])n4)CCOCCOCC3)nc(C(=O)[O-])c2)nn1.[225Ac+3] [[^225Ac]Ac-mcp-M-COOH] | 99 | 99 | 99 | 99 | 99 | 96 | 
O=C(O)CC[C@H](NC(=O)N[C@@H](CCCCNC(=O)[C@H](Cc1ccc2ccccc2c1)NC(=O)[C@H]1CC[C@H](CNC(=O)CCCCn2cc(COc3cc(CN4CCOCCOCCN(Cc5cccc(C(=O)O)n5)CCOCCOCC4)nc(C(=O)O)c3)nn2)CC1)C(=O)O)C(=O)O [[^225Ac]Ac-mcp-M-PSMA, metal not drawn] | 99 |  | 99 |  | 99 |  | logD7.4 (logD7.4 determination): −2.8 ± 0.1; decrease of relative cell number (LNCaP cells [3]): approximately one third; Percentage amount of colonies referred to the non-radioactive control (LNCaP cells [4]; [5]): 107.2%; Percentage amount of colonies referred to the non-radioactive control (LNCaP cells [4]; [6]): 91.8%; Percentage amount of colonies referred to the non-radioactive control (LNCaP cells [4]; 1 h incubation time, 5 kBq/mL): 19.4%; Percentage amount of colonies referred to the non-radioactive control (LNCaP cells [4]; 1 h incubation time, 50 kBq/mL): 1.4%; Percentage amount of colonies referred to the non-radioactive control (LNCaP cells [4]; [7]): 116.8%; Percentage amount of colonies referred to the non-radioactive control (LNCaP cells [4]; [8]): 57.2%; Percentage amount of colonies referred to the non-radioactive control (LNCaP cells [4]; 4 h incubation time, 5 kBq/mL): 5.3%; Percentage amount of colonies referred to the non-radioactive control (LNCaP cells [4]; 4 h incubation time, 50 kBq/mL): 0.9%; Tumor-to-blood ratio (LNCaP tumor-bearing mice; [9]): 188.42; tumor-to-muscle ratio (LNCaP tumor-bearing mice; [9]): 310.82
C#CCOc1cc(CN2CCOCCOCCN(Cc3cccc(C(=O)[O-])n3)CCOCCOCC2)nc(C(=O)[O-])c1.[225Ac+3] [[^225Ac]Ac-mcp-M-click] | 99 | 99 | 99 | 99 | 58 | 55 | 

— article PMC8073976, “Towards Targeted Alpha Therapy with Actinium-225: Chelators for Mild Condition Radiolabeling and Targeting PSMA—A Proof of Concept Study” (Cancers, 2021)
